{"source": "patent US20080026409A1", "about": "“SALT-SENSITIVE HYPERTENSION” (THE BOARD OF TRUSTEES OF THE UNIVERSITY OF ILLINOIS, priority 2006, published 2008)", "key": {"HK-2 cells": {"tested_on": "HK-2 cells", "conditions": "cited from earlier work"}, "[1]": {"tested_on": "Na/K ATPase in LLCPK1 cells", "test": "Na/K ATPase distribution by confocal immunofluorescence", "format": "cell-based", "conditions": "for Na/K ATPase distribution (endocytosis, membrane abundance): LLCPK1 cells, Ang IV 10 nM×12 hours, oubain 50 nM×12 hours (control); for APN induced endocytosis of Na/K ATPase: LLCPK1 cells with APN overexpression plus siRNA", "source_text": "FIGS. 6A-6G are scans of photographs showing Na/K ATPase distribution in LLCPK1 cells by immuno fluorescence (complementary to FIG. 5): Confocal images from z-stacked permeabilized LLCPK1 cells probed for Na/K ATPase using monoclonal Ab against the alpha subunit of Na/K ATPase (1:100). FIG. 6A: Control. […] All images were generated with a Zeiss LSM 410 laser scanning confocal microscope at 100×. All settings were the same for all images obtained. Images are representative of experiments repeated twice. Arrows: endocytosis of Na/K ATPase.\nConfocal microscopy: Confocal fluorescence microscopy is performed using a Zeiss LSM 510 confocal microscope and Anti alphal Na/K ATPase mAb (Upstate/ Millipore, Billerica, Mass.) to further confirm the internalization of surface Na/K ATPase."}, "[2]": {"tested_on": "Dahl SS/Jr rats on 8% NaCl", "test": "Radiotelemetric blood pressure monitoring during Ang IV infusion", "format": "in vivo, rat", "conditions": "10 day Ang IV infusion 7 pmol/minute, n=4, P<0.05", "method": "Radiotelemetric blood pressure monitoring with 10 day Ang IV (7 pmol/minute) infusion (===). Systolic BP (peak) 157-188 mmHg. BP for each rat normalized to day 9, each BP averaged during 12 hour dark cycle (rats maintained 12 hours light/dark cycle). Day 0—surgical implantation of pressure transducer and infusion pump. n =4,- - - less than days 6-9 (initial infusion of Ang IV) and 16-24 (P<0.05).\nContinuous arterial blood pressure monitoring is by radiotelemetry in freely moving instrumented rats. An implantable osmotic pump is used for infusion experiments.\nFirst, for tail-cuff measurements, the rats must be restrained which falsely elevates the blood pressure due to adrenergic storm. With radiotelemetry, the rats are unrestrained and blood pressures are measured continuously in freely moving rats in large cages. […] Third, with tail cuff, blood pressures are measured once or at most twice a day, whereas, with radiotelemetry, blood pressures are measured continuously, allowing assessment of diurnal patterns and the time-integral of overall blood pressure burden. […]\nSurvival Surgery and Radiotelemetry Measurement of Central Aortic Pressure. […] Once the transmitter is activated by a special magnet, measurements of pulsatile central aortic blood pressure is recorded continuously by placing an individual receiver under each rat's cage. […]"}, "[3]": {"tested_on": "primary cultures of rat renal epithelial cells", "conditions": "cited from earlier work"}, "[4]": {"tested_on": "basolateral Na/K ATPase in LLCPK1 cells", "test": "Basolateral Na/K ATPase expression by surface biotinylation and Western blot", "format": "cell-based", "conditions": "for expression of basolateral Na/K ATPase: LLCPK1 cells, Ang IV 10^−9 M×20 hours, siRNA transfection", "method": "Representative autoradiograph of Na-K ATPase as detected by Western blot represented above bar-graph. Upper panel: representative autoradiograph of Na-K ATPase as detected by Western blot. Overexpression of APN( APN Over Exp) n=3 (except Ang IV, n=6) * P<0.05 compared to control paired t-test) Complementary measurements of Na/K ATPase expression by confocal microscopy-FIG. 5).\n(§1) Na/K ATPase expression and activity are measured by basolateral surface biotinylation and oubain-inhibitable ATPase activity, respectively, in cells cultured in Transwell plates.\nIn complementary experiments, basolateral Na/K ATPase expression in cultured cells is measured both by biotinylation and confocal microscopy. Biotinylation technique to assess the surface Na/K ATPase protein has already been established in our laboratory. Biotinylation is performed as using NHS-S-S-biotin (Pierce). Labeling for 20 min at the basolateral domain in cells grown in transwells at 4° C. to stop endocytosis and internalization of antigen. Biotinylated antigens are immunoprecipitated with streptavidin agarose and released by incubation in 10 mM dithiothreitol, reconstituted in Laemmli buffer, subjected to SDS-PAGE and then probed with Anti alphal Na/K ATPase mAb (Upstate/ Millipore, Billerica, Mass.). For analysis, surface Na/K ATPase is compared to total protein as determined by immunoblotting in solubilized cell extract and with the amount of Na/K ATPase not removed by avidin precipitation method (intracellular pool)."}, "rat": {"tested_on": "rat", "conditions": "infusion into the renal artery, cited from earlier work"}, "[5]": {"tested_on": "Na/K ATPase in LLCPK1 cells", "test": "Na/K ATPase activity (oubain-inhibitable ATPase) in cultured cells", "format": "cell-based", "conditions": "FIG. 7, n=1 (triplicate)", "method": "FIG. 7 is a graph showing Na/K ATPase activity parallels changes in basolateral Na/K ATPase expression in LLCPK1 cells treated with siRNA to APN and AT4; Ang IV and oubain (control). n=1 (triplicate). siRNA to APN (siRNA-APN); siRNA to AT4 (siRNA-AT4); APN over-expression (APN o/e).\nas §1\nMeasurement of Na/KATPase expression and activity: Na/K ATPase activity in membranes isolated from proximal tubule fractions and membranes from cultured/transfected cell lines is measured as the rate of inorganic phosphate, using coloring reagent (10% ammonium molybdate in 10 N sulfuric acid +ferrous sulfate) released in the presence or absence of oubain."}, "rat proximal tubules": {"tested_on": "rat proximal tubules", "conditions": "fresh suspensions of control or nystatin-stimulated rat proximal tubules; cited from earlier work"}, "Dahl SR rats": {"tested_on": "Dahl SR rats", "test": "Infusion of Anpep inhibitor, salt-sensitivity by radiotelemetric blood pressure", "format": "in vivo, rat", "conditions": "preliminary experiments", "method": "For these experiments, continuous radiotelemetric blood pressure monitoring is performed in rats instrumented with transducers and osmotic mini-pumps."}, "LLC-PK cells": {"tested_on": "LLC-PK cells", "test": "Quantitative immunohistochemistry for APN and Ang IV after siRNA", "format": "cell-based", "conditions": "siRNA 2 μg per well, 48 hours, Q-IHC, P<0.05 vs control", "method": "The top panel is a scan of photographs showing quantitative immunohistochemistry (QIH-C) for APN and Ang IV. Cells were grown in 4 well chamber plates. For siRNA, each well was incubated (37° C. for 5 hours) with 1 ml media containing 4 μl of Enhancer R, 4 μl of RNAi (2 μg), 8 μl of Transmessenger Reagent and […] of optimem followed by 0.5 ml of optimem+20% FBS for 48 hours. The cells were fixed with 3.7% formaldehyde and stained using DakoCytomation staining kit. The amount of DAB staining was measured using Q-IHC. N=10 fields analyzed/transfection×2 transfections P<0.05 vs control. Upper panel: representative fields. Positive staining-arrows.\nAPN abundance regulates Ang IV: To initially address the hypothesis that the mechanism for APN-mediated regulation of Na/K ATPase is via Ang IV signaling, the effect of suppression of endogenous APN expression with siRNA on Ang IV abundance was measured in LLC-PK cells (FIG. 3A-3B). siRNA to APN decreased both APN and Ang IV expression, indicating the Ang IV level was regulated by APN.\nFor quantitative immunohistochemistry, a standard three-stage indirect immunoperoxidase technique is used on formalin fixed kidney sections. Images are acquired using a 4.9 million pixel digital scanning 24-bit RGB camera, saved in TIFF format, and used for subsequent analysis. […]"}}, "note": "Entries after “also recorded” stand apart in the source; their conditions may differ."}
{"compound": "CC[C@H](C)[C@H](NC(=O)[C@H](Cc1ccc(O)cc1)NC(=O)[C@@H](N)C(C)C)C(=O)N[C@@H](Cc1cnc[nH]1)C(=O)N1CCC[C@H]1C(=O)N[C@@H](Cc1ccccc1)C(=O)O", "note": "[Ang IV, V-Y-I-H-P-F (SEQ ID NO: 2)]", "values": [{"measurement": "Na uptake (reflecting decreased flux)", "setting": "HK-2 cells", "value": "increases Na uptake"}, {"measurement": "Na/K ATPase distribution (endocytosis, membrane abundance)", "setting": "[1]", "value": "endocytosis and reduced membrane abundance of Na/K ATPase"}, {"measurement": "blood pressure (BP)", "setting": "[2]", "value": "reduces blood pressure; also recorded: lowers arterial blood pressure"}, {"measurement": "transcellular Na transport", "setting": "[3]", "value": "dose-dependent decrease"}, {"measurement": "expression of basolateral Na/K ATPase", "setting": "[4]", "value": "tend to reduce; also recorded: reduced"}, {"measurement": "cortical blood flow", "setting": "rat; rat", "value": "increases cortical blood flow"}, {"measurement": "Na excretion", "setting": "rat", "value": "increases urinary Na excretion; also recorded: promotes Na excretion"}, {"measurement": "blood pressure", "setting": "rat", "value": "lowers blood pressure"}, {"measurement": "activity of basolateral Na/K ATPase", "setting": "[5]", "value": "reduce"}, {"measurement": "transcellular Na+ transport (proximal tubule O2 consumption rates)", "setting": "rat proximal tubules", "value": "decreases"}]}
{"compound": "5′-AACCTGAGTCAGGACGTAAT-3′; SEQ ID NO: 4 [siRNA to AT4 receptor]", "values": [{"measurement": "APN induced endocytosis of Na/K ATPase", "setting": "[1]", "value": "partially blocks"}, {"measurement": "APN induced endocytosis of Na/K ATPase", "setting": "[1]; listed as siRNA to the AT4 receptor", "value": "abrogrates"}, {"measurement": "regulation (reduction) of Na/K ATPase expression by Ang IV", "setting": "[4]; LLCPK1 cells treated with siRNA and Ang IV", "value": "partially abolishes; also recorded: abrogated"}, {"measurement": "expression of basolateral Na/K ATPase", "setting": "[4]", "value": "increase"}]}
{"compound": "C[C@@H]1O[C@@H](O[C@H]2C[C@@H](O)[C@]3(CO)[C@H]4[C@H](O)C[C@]5(C)[C@@H](C6=CC(=O)OC6)CC[C@]5(O)[C@@H]4CC[C@]3(O)C2)[C@H](O)[C@H](O)[C@H]1O", "note": "[oubain]", "values": [{"measurement": "Na/K ATPase distribution (endocytosis, membrane abundance)", "setting": "[1]", "value": "endocytosis"}]}
{"compound": "CC(C)C[C@H](NC(=O)C(O)[C@H](N)Cc1ccccc1)C(=O)O", "note": "(stereo partly drawn) [bestatin, (2S,3R)-3-amino-2-hydroxy-4-phenylbutanoyl-L-leucine]", "values": [{"measurement": "salt-sensitivity", "setting": "Dahl SR rats", "value": "induced sensitivity"}]}
{"compound": "5′-UCGGGCACAGAUCAUUAUUd(TT)-3′; SEQ ID NO: 3 [siRNA to APN]", "values": [{"measurement": "APN expression", "setting": "LLC-PK cells", "value": "reduces; also recorded: decreased"}, {"measurement": "Ang IV expression", "setting": "LLC-PK cells", "value": "reduces; also recorded: decreased"}, {"measurement": "expression of basolateral Na/K ATPase", "setting": "[4]", "value": "increased"}]}
